Assay results from ChEMBL document CHEMBL3758169, “4-Aminoindazolyl-dihydrofuro[3,4-d]pyrimidines as non-covalent inhibitors of mutant epidermal growth factor receptor tyrosine kinase” (Bioorg Med Chem Lett, 2016).

Experiments:
[1] = target: Serine/threonine-protein kinase Nek1 (Homo sapiens) (UniProt Q96PY6); test: Inhibition of NEK1 (unknown origin) at 100 nM
[2] = target: Serine/threonine-protein kinase PAK 4 (Homo sapiens) (UniProt O96013); test: Inhibition of PAK4 (unknown origin) at 100 nM
[3] = target: Platelet-derived growth factor receptor beta (Homo sapiens) (UniProt P09619); test: Inhibition of PDGFRbeta (unknown origin) at 100 nM
[4] = target: Serine/threonine-protein kinase D1 (Homo sapiens) (UniProt Q15139); test: Inhibition of PKD1 (unknown origin) at 100 nM
[5] = target: 5'-AMP-activated protein kinase catalytic subunit alpha-1 (Homo sapiens) (UniProt Q13131); test: Inhibition of PRKAA1 (unknown origin) at 100 nM
[6] = target: Rho-associated protein kinase 1 (Homo sapiens) (UniProt Q13464); test: Inhibition of ROCK1 (unknown origin) at 100 nM
[7] = target: Ribosomal protein S6 kinase alpha-1 (Homo sapiens) (UniProt Q15418); test: Inhibition of RSK1 (unknown origin) at 100 nM
Chain of Ribosomal protein S6 kinase alpha-1 (Homo sapiens) (Q15418 whole entry): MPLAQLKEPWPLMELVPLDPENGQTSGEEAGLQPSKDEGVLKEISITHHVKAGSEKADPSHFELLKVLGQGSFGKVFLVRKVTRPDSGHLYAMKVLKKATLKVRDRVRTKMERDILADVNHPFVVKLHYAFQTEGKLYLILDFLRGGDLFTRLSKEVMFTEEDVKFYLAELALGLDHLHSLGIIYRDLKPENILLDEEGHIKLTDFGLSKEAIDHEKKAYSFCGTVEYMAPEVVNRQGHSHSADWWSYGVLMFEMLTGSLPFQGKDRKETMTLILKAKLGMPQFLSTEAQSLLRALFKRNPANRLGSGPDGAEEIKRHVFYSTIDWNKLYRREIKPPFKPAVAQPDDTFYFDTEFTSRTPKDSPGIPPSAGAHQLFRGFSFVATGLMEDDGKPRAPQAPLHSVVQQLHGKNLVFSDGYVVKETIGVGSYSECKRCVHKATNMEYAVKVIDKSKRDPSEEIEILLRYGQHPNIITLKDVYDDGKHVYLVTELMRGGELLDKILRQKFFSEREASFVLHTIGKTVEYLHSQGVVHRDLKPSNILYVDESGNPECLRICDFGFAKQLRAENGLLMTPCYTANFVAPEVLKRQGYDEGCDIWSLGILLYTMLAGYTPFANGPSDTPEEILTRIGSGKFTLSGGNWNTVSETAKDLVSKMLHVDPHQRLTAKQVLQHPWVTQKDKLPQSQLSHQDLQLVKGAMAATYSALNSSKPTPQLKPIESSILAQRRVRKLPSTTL

[8] = target: Serine/threonine-protein kinase TBK1 (Homo sapiens) (UniProt Q9UHD2); test: Inhibition of TBK1 (unknown origin) at 100 nM
[9] = target: Serine/threonine-protein kinase mTOR (Homo sapiens) (UniProt P42345); test: Inhibition of mTOR (unknown origin) at 100 nM
[10] = target: Ribosomal protein S6 kinase beta-1 (Homo sapiens) (UniProt P23443); test: Inhibition of p70S6K(unknown origin) at 100 nM
Chain of Ribosomal protein S6 kinase beta-1 (Homo sapiens) (P23443 whole entry, looked up): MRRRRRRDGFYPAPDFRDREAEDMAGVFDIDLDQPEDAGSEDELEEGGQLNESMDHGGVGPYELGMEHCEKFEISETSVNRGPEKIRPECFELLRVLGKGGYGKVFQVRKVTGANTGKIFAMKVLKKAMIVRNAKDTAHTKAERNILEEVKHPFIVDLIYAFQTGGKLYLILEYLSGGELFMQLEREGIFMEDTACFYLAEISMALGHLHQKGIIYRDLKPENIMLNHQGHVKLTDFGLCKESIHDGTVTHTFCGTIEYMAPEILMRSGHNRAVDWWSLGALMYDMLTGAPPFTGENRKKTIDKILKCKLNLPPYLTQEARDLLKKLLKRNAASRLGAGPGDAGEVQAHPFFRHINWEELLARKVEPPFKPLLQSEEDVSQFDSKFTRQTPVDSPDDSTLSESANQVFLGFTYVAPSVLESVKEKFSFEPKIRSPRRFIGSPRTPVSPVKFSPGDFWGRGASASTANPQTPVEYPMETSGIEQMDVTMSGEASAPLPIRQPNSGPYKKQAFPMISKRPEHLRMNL

[11] = Apparent permeability from the apical to basolateral side in MDCK cells; format: ADME, cell-based, Canis lupus familiaris; settings: dog
[12] = target: Epidermal growth factor receptor (Homo sapiens, UniProt P00533, L858R/T790M); test: Inhibition of EGFR T790M/L858R mutant (unknown origin); format: protein assay
[13] = target: Epidermal growth factor receptor (Homo sapiens, UniProt P00533, L858R); test: Inhibition of EGFR L858R mutant (unknown origin); format: protein assay
[14] = target: RAC-alpha serine/threonine-protein kinase (Homo sapiens) (UniProt P31749); test: Inhibition of AKT1 (unknown origin) at 100 nM
[15] = target: Cyclin-dependent kinase 5/CDK5 activator 1 (Homo sapiens) (UniProt Q00535+Q15078); test: Inhibition of CDK5/p25 (unknown origin) at 100 nM; format: protein-complex assay
Chain of Cyclin-dependent kinase 5/CDK5 activator 1 (Homo sapiens) (Q00535 whole entry): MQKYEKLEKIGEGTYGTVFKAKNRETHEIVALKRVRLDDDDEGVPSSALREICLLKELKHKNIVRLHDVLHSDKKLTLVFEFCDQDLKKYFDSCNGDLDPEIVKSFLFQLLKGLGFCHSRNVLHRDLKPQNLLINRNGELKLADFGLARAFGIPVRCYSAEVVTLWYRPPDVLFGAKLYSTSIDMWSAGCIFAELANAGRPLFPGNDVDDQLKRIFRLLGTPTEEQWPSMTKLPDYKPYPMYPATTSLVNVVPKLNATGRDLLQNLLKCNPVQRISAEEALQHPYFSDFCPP
Chain of Cyclin-dependent kinase 5/CDK5 activator 1 (Homo sapiens) (Q15078 99-307 partner limits assumed): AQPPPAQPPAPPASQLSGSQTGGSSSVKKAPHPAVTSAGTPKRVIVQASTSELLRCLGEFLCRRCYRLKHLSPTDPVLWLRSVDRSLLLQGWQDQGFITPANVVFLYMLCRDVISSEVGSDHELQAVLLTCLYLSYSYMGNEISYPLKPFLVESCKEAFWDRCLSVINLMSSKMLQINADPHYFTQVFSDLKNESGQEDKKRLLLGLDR

[16] = target: Epidermal growth factor receptor (Homo sapiens, UniProt P00533); test: Inhibition of EGFR (unknown origin) at 100 nM
[17] = system: Epidermal growth factor receptor (Homo sapiens), P00533 [L858R,T790M]; test: Inhibition of EGFR T790M/L858R double mutant (unknown origin) at 100 nM; format: protein assay
[18] = target: Protein-tyrosine kinase 2-beta (Homo sapiens) (UniProt Q14289); test: Inhibition of FAK2 (unknown origin) at 100 nM
Chain of Protein-tyrosine kinase 2-beta (Homo sapiens) (Q14289 whole entry, looked up): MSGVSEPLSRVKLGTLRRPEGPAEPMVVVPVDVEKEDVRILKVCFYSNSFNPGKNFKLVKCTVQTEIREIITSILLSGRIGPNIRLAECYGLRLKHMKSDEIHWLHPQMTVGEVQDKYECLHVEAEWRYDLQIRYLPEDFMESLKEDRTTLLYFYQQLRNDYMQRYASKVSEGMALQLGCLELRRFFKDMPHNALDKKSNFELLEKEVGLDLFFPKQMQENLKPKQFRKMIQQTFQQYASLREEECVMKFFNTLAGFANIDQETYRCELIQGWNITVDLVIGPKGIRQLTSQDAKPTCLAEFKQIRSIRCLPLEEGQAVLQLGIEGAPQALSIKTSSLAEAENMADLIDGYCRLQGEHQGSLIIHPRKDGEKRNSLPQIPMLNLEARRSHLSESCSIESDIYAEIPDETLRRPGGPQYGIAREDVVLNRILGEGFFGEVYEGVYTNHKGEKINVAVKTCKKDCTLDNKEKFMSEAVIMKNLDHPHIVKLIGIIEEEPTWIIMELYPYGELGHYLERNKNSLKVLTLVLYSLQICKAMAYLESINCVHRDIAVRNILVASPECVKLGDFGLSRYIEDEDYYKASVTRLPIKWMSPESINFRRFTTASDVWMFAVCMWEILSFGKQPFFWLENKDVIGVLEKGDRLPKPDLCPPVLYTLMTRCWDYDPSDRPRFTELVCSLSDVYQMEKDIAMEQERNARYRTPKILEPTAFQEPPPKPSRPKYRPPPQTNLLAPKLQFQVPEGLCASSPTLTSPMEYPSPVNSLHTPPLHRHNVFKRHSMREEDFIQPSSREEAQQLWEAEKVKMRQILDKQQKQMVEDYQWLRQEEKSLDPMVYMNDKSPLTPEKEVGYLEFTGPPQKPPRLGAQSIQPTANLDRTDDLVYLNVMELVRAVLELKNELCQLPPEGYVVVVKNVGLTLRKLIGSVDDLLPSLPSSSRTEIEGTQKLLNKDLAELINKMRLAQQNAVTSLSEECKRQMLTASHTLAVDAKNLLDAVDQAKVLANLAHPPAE

[19] = target: Fibroblast growth factor receptor 1 (Homo sapiens) (UniProt P11362); test: Inhibition of FGFR1 (unknown origin) at 100 nM
[20] = target: Receptor-type tyrosine-protein kinase FLT3 (Homo sapiens) (UniProt P36888); test: Inhibition of FLT3 (unknown origin) at 100 nM
[21] = target: Mitogen-activated protein kinase kinase kinase kinase 2 (Homo sapiens) (UniProt Q12851); test: Inhibition of GCK (unknown origin) at 100 nM
[22] = target: Glycogen synthase kinase-3 beta (Homo sapiens) (UniProt P49841); test: Inhibition of GSK3beta (unknown origin) at 100 nM
Chain of Glycogen synthase kinase-3 beta (Homo sapiens) (P49841 whole entry, looked up): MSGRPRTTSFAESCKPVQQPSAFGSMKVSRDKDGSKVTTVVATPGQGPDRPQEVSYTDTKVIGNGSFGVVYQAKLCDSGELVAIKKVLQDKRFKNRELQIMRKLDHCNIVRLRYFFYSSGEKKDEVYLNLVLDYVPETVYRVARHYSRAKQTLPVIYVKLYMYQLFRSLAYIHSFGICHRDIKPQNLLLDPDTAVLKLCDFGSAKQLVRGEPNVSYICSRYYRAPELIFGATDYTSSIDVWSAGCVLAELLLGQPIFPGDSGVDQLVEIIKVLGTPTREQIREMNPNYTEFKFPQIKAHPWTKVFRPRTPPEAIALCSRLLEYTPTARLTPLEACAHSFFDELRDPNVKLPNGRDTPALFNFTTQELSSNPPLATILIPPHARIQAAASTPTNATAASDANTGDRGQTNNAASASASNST

[23] = target: T1, Inhibitor of nuclear factor kappa-B kinase subunit epsilon (Homo sapiens) (UniProt Q14164); test: Inhibition of IKKepsilon (unknown origin) at 100 nM
T1 sequence (whole entry): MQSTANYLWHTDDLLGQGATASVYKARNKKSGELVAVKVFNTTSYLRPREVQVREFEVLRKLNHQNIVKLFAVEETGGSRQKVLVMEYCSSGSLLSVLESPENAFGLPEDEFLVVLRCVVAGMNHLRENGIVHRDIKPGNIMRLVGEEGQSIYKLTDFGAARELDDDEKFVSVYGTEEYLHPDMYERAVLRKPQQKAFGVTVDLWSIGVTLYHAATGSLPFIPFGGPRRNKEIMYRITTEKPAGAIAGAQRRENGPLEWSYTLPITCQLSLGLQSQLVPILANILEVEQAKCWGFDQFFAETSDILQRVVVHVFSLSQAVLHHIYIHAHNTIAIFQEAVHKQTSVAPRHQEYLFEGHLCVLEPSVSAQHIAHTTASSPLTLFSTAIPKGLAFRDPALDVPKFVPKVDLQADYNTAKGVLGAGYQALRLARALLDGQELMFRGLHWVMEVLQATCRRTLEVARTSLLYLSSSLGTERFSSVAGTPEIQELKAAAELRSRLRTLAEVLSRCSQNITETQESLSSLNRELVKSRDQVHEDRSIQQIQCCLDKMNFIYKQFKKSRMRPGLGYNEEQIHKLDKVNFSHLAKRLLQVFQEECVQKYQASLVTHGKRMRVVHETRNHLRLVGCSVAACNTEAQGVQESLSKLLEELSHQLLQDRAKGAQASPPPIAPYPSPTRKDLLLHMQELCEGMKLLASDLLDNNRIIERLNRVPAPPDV

[24] = target: Interleukin-1 receptor-associated kinase 4 (Homo sapiens) (UniProt Q9NWZ3); test: Inhibition of IRAK4 (unknown origin) at 100 nM
Chain of Interleukin-1 receptor-associated kinase 4 (Homo sapiens) (Q9NWZ3 whole entry): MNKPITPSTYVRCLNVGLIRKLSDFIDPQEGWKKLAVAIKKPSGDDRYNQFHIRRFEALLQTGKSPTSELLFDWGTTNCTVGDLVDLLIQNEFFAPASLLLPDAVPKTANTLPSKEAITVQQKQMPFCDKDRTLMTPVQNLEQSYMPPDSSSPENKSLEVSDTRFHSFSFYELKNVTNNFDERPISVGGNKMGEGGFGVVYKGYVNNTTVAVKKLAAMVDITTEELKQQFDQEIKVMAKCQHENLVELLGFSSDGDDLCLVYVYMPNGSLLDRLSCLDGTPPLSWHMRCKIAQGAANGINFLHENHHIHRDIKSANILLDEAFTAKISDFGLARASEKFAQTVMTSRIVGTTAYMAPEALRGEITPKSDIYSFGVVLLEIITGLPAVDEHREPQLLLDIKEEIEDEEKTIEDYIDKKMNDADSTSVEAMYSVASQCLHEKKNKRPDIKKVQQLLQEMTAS

[25] = target: Tyrosine-protein kinase ITK/TSK (Homo sapiens) (UniProt Q08881); test: Inhibition of ITK (unknown origin) at 100 nM
[26] = target: Insulin receptor (Homo sapiens) (UniProt P06213); test: Inhibition of INSR (unknown origin) at 100 nM
Chain of Insulin receptor (Homo sapiens) (P06213 28-758 limits assumed): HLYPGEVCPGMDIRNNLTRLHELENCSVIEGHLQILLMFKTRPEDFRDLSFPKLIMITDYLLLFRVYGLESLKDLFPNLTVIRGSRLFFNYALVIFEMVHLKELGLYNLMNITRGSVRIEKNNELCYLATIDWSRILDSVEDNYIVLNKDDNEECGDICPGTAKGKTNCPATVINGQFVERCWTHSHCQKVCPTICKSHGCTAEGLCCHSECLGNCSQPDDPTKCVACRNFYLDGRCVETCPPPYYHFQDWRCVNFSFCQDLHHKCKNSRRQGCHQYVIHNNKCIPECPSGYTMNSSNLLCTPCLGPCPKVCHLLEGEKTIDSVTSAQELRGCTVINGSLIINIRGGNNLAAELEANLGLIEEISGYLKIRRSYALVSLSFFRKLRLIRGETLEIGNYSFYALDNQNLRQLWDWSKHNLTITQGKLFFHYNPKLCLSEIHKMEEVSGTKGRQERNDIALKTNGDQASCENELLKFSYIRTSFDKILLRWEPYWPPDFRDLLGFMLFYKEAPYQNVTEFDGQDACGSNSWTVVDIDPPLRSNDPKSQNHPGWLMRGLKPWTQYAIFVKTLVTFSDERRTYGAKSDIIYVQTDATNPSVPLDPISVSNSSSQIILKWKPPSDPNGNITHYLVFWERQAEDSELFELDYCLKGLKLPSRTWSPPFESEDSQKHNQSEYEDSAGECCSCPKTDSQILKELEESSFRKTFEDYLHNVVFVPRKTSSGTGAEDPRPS
Chain of Insulin receptor (Homo sapiens) (P06213 763-1382 limits assumed): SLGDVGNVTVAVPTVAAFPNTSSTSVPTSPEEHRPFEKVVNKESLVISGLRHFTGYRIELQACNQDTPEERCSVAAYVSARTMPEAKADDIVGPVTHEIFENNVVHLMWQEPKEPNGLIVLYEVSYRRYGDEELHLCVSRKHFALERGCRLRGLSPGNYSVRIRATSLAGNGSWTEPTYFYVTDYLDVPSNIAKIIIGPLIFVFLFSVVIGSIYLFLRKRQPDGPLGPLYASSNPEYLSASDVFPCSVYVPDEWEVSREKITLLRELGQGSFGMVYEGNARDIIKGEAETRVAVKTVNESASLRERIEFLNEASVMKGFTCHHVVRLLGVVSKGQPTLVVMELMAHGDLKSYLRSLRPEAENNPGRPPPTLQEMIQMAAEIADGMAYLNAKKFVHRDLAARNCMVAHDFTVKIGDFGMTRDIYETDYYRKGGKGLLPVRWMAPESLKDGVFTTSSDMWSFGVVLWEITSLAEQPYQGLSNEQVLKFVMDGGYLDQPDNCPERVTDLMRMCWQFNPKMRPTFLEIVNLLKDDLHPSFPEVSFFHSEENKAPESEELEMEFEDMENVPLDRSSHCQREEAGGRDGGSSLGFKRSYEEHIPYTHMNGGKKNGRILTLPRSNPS

[27] = target: Tyrosine-protein kinase JAK2 (Homo sapiens) (UniProt O60674); test: Inhibition of JAK2 (unknown origin) at 100 nM
[28] = target: Mast/stem cell growth factor receptor Kit (Homo sapiens) (UniProt P10721); test: Inhibition of KIT (unknown origin) at 100 nM
[29] = target: Tyrosine-protein kinase Lck (Homo sapiens) (UniProt P06239); test: Inhibition of LCK (unknown origin) at 100 nM
[30] = target: Tyrosine-protein kinase Lyn (Homo sapiens) (UniProt P07948); test: Inhibition of LYN (unknown origin) at 100 nM
[31] = target: Tyrosine-protein kinase CSK (Homo sapiens) (UniProt P41240); test: Inhibition of CSK (unknown origin) at 100 nM
[32] = target: Calcium/calmodulin-dependent protein kinase type II subunit beta (Homo sapiens) (UniProt Q13554); test: Inhibition of CaMKIIbeta (unknown origin) at 100 nM
[33] = target: Tyrosine-protein kinase FRK (Homo sapiens) (UniProt P42685); test: Inhibition of FRK (unknown origin) at 100 nM
[34] = target: Mitogen-activated protein kinase 10 (Homo sapiens) (UniProt P53779); test: Inhibition of JNK3 (unknown origin) at 100 nM

inhibition [1]	inhibition [2]	inhibition [3]	inhibition [4]	inhibition [5]	inhibition [6]	inhibition [7]	inhibition [8]	inhibition [9]	inhibition [10]	Papp A→B [11]	Ki [12]	Ki [13]	inhibition [14]	inhibition [15]	inhibition [16]	inhibition [17]	inhibition [18]	inhibition [19]	inhibition [20]	SMILES	further results
-4%	-3.1%	10.8%	8.4%	27.8%	2.3%	19.5%	9.4%	8.7%	10.4%	9.5 ×10⁻⁶ cm/s	2 nM	1.3 nM	11.1%	7.8%	93.7%	91.5%	9.1%	85.1%	67.3%	CC1(C)OCc2c(Nc3n[nH]c4c(Cl)cccc34)nc(-c3cn[nH]c3)nc21	inhibition [21]: 6.4%; inhibition [22]: 61%; inhibition [23]: 3.2%; inhibition [24]: 16.9%; inhibition [25]: 2%; inhibition [26]: 2%; inhibition [27]: 8.8%; inhibition [28]: 4.8%; inhibition [29]: 86.9%; inhibition [30]: 94%
6.8%	0.2%	35.2%	2.1%	-3.1%	0.8%	13.9%	7.9%	-1.6%	4.3%	6.7 ×10⁻⁶ cm/s	2 nM	0.5 nM	3.5%	0%	97.4%	95.9%	9.7%	27.7%	16.5%	CC1(C)OCc2c(Nc3n[nH]c4ccccc34)nc(-c3cn[nH]c3)nc21	inhibition [31]: 3.7%; inhibition [32]: 11.2%; inhibition [33]: 85.6%; inhibition [22]: 41.9%; inhibition [23]: -8.7%; inhibition [24]: 4.3%; inhibition [25]: 4%; inhibition [26]: 5.4%; inhibition [27]: 9.8%; inhibition [34]: 18.6%; inhibition [28]: 13.3%; inhibition [29]: 50.6%; inhibition [30]: 89.9%
